Assay results taken from the supplement of paper PMC10307832.

Legend:
Test in all cases: relative viability (nuclei count vs DMSO), 5 days (fraction); higher = more cells survive
NCI-H2085 = test system: NCI-H2085
In short: (§1)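 The day after seeding in 1536-well plates, lung cancer cell lines were treated by pin tool with a single drug, or with a fixed anchor-drug dose together with five library-drug doses (not always all listed) in √10 steps. After 5 days, a combined fix-and-stain solution (final 0.05% Triton X-100, 1% formaldehyde, 1 ug/ml Hoechst) was added. Nuclei counted on 4× images gave relative viability as treated counts over vehicle counts, reported as the median of duplicate plates.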

BEN = test system: BEN
In short: as §1

NCI-H1437 = test system: NCI-H1437
In short: as §1

NCI-H1975 = test system: NCI-H1975
In short: as §1

NCI-H1666 = test system: NCI-H1666
In short: as §1

HCC-44 = test system: HCC-44
In short: as §1

H3255 = test system: H3255
In short: as §1

PC-3 [JPC-3] = test system: PC-3 [JPC-3]
In short: as §1

NCI-H358 = test system: NCI-H358
In short: as §1

LU99A = test system: LU99A
In short: as §1

EKVX = test system: EKVX
In short: as §1

NCI-H647 = test system: NCI-H647
In short: as §1

LOU-NH91 = test system: LOU-NH91
In short: as §1

HOP-62 = test system: HOP-62
In short: as §1

NCI-H2087 = test system: NCI-H2087
In short: as §1

NCI-H1395 = test system: NCI-H1395
In short: as §1

COR-L 105 = test system: COR-L 105
In short: as §1

HCC-827 = test system: HCC-827
In short: as §1

NCI-H2342 = test system: NCI-H2342
In short: as §1

SW 1573 = test system: SW 1573
In short: as §1

EPLC-272H = test system: EPLC-272H
In short: as §1

LCLC-97TM1 = test system: LCLC-97TM1
In short: as §1

201T = test system: 201T
In short: as §1

**Q.** How did the relative viability (NCI-H2085; first compound 0.04 µM) turn out when O=C(O)c1ccc(-c2c[nH]c3ncc(-c4ccccc4)cc23)cc1C1CCCC1 + Cc1cc(Nc2cc(N3CCN(C)CC3)nc(Sc3ccc(NC(=O)C4CC4)cc3)n2)n[nH]1 [Tozasertib] (partner 0.1 µM) was run?
**A.** 0.772

**Q.** And the relative viability (NCI-H2085; first compound 0.1265 µM)?
**A.** 0.829

**Q.** And the relative viability (NCI-H2085; first compound 0.4 µM)?
**A.** 0.598

**Q.** What about the relative viability (NCI-H2085; first compound 1.265 µM) of the same compound?
**A.** 0.52

**Q.** And the relative viability (BEN; first compound 0.04 µM)?
**A.** 0.603

**Q.** And the relative viability (BEN; first compound 0.1265 µM)?
**A.** 0.501

**Q.** What about the relative viability (BEN; first compound 0.4 µM) of the same compound?
**A.** 0.49

**Q.** And the relative viability (BEN; first compound 1.265 µM)?
**A.** 0.437

**Q.** What about the relative viability (NCI-H1437; first compound 0.04 µM) of the same compound?
**A.** 0.402

**Q.** And the relative viability (NCI-H1437; first compound 0.1265 µM)?
**A.** 0.466

**Q.** What about the relative viability (NCI-H1437; first compound 0.4 µM) of the same compound?
**A.** 0.398

**Q.** And the relative viability (NCI-H1437; first compound 1.265 µM)?
**A.** 0.405

**Q.** What about the relative viability (NCI-H1975; first compound 0.04 µM) of the same compound?
**A.** 0.681

**Q.** And the relative viability (NCI-H1975; first compound 0.1265 µM)?
**A.** 0.875

**Q.** And the relative viability (NCI-H1975; first compound 0.4 µM)?
**A.** 0.794

**Q.** And the relative viability (NCI-H1975; first compound 1.265 µM)?
**A.** 0.729

**Q.** What about the relative viability (NCI-H1666; first compound 0.04 µM) of the same compound?
**A.** 0.627

**Q.** What about the relative viability (NCI-H1666; first compound 0.1265 µM) of the same compound?
**A.** 0.587

**Q.** And the relative viability (NCI-H1666; first compound 0.4 µM)?
**A.** 0.546

**Q.** What about the relative viability (NCI-H1666; first compound 1.265 µM) of the same compound?
**A.** 0.419

**Q.** And the relative viability (HCC-44; first compound 0.04 µM)?
**A.** 1.16

**Q.** What about the relative viability (HCC-44; first compound 0.1265 µM) of the same compound?
**A.** 1.15

**Q.** And the relative viability (HCC-44; first compound 0.4 µM)?
**A.** 0.853

**Q.** And the relative viability (HCC-44; first compound 1.265 µM)?
**A.** 0.616

**Q.** And the relative viability (H3255; first compound 0.04 µM)?
**A.** 0.524

**Q.** And the relative viability (H3255; first compound 0.1265 µM)?
**A.** 0.693

**Q.** And the relative viability (H3255; first compound 0.4 µM)?
**A.** 0.618

**Q.** And the relative viability (H3255; first compound 1.265 µM)?
**A.** 0.604

**Q.** What about the relative viability (PC-3 [JPC-3]; first compound 0.04 µM) of the same compound?
**A.** 0.926

**Q.** And the relative viability (PC-3 [JPC-3]; first compound 0.1265 µM)?
**A.** 0.881

**Q.** And the relative viability (PC-3 [JPC-3]; first compound 0.4 µM)?
**A.** 0.766

**Q.** And the relative viability (PC-3 [JPC-3]; first compound 1.265 µM)?
**A.** 0.65

**Q.** And the relative viability (NCI-H358; first compound 0.04 µM)?
**A.** 0.0826

**Q.** And the relative viability (NCI-H358; first compound 0.1265 µM)?
**A.** 0.107

**Q.** And the relative viability (NCI-H358; first compound 0.4 µM)?
**A.** 0.0884

**Q.** What about the relative viability (NCI-H358; first compound 1.265 µM) of the same compound?
**A.** 0.0978

**Q.** What about the relative viability (LU99A; first compound 0.04 µM) of the same compound?
**A.** 0.268

**Q.** And the relative viability (LU99A; first compound 0.1265 µM)?
**A.** 0.253

**Q.** What about the relative viability (LU99A; first compound 0.4 µM) of the same compound?
**A.** 0.281

**Q.** And the relative viability (LU99A; first compound 1.265 µM)?
**A.** 0.257

**Q.** What about the relative viability (EKVX; first compound 0.04 µM) of the same compound?
**A.** 0.404

**Q.** And the relative viability (EKVX; first compound 0.1265 µM)?
**A.** 0.443

**Q.** And the relative viability (EKVX; first compound 0.4 µM)?
**A.** 0.416

**Q.** What about the relative viability (EKVX; first compound 1.265 µM) of the same compound?
**A.** 0.364

**Q.** What about the relative viability (NCI-H647; first compound 0.04 µM) of the same compound?
**A.** 0.223

**Q.** And the relative viability (NCI-H647; first compound 0.1265 µM)?
**A.** 0.381

**Q.** What about the relative viability (NCI-H647; first compound 0.4 µM) of the same compound?
**A.** 0.337

**Q.** And the relative viability (NCI-H647; first compound 1.265 µM)?
**A.** 0.22

**Q.** And the relative viability (LOU-NH91; first compound 0.04 µM)?
**A.** 0.584

**Q.** And the relative viability (LOU-NH91; first compound 0.1265 µM)?
**A.** 0.688

**Q.** And the relative viability (LOU-NH91; first compound 0.4 µM)?
**A.** 0.616

**Q.** And the relative viability (LOU-NH91; first compound 1.265 µM)?
**A.** 0.526

**Q.** What about the relative viability (HOP-62; first compound 0.04 µM) of the same compound?
**A.** 0.393

**Q.** And the relative viability (HOP-62; first compound 0.1265 µM)?
**A.** 0.332

**Q.** What about the relative viability (HOP-62; first compound 0.4 µM) of the same compound?
**A.** 0.304

**Q.** What about the relative viability (HOP-62; first compound 1.265 µM) of the same compound?
**A.** 0.308

**Q.** What about the relative viability (NCI-H2087; first compound 0.04 µM) of the same compound?
**A.** 0.248

**Q.** What about the relative viability (NCI-H2087; first compound 0.1265 µM) of the same compound?
**A.** 0.29

**Q.** And the relative viability (NCI-H2087; first compound 0.4 µM)?
**A.** 0.227

**Q.** What about the relative viability (NCI-H2087; first compound 1.265 µM) of the same compound?
**A.** 0.186

**Q.** And the relative viability (NCI-H1395; first compound 0.04 µM)?
**A.** 0.818

**Q.** And the relative viability (NCI-H1395; first compound 0.1265 µM)?
**A.** 0.793

**Q.** And the relative viability (NCI-H1395; first compound 0.4 µM)?
**A.** 0.676

**Q.** And the relative viability (NCI-H1395; first compound 1.265 µM)?
**A.** 0.604

**Q.** What about the relative viability (COR-L 105; first compound 0.04 µM) of the same compound?
**A.** 0.304

**Q.** What about the relative viability (COR-L 105; first compound 0.1265 µM) of the same compound?
**A.** 0.36

**Q.** What about the relative viability (COR-L 105; first compound 0.4 µM) of the same compound?
**A.** 0.357

**Q.** What about the relative viability (COR-L 105; first compound 1.265 µM) of the same compound?
**A.** 0.36

**Q.** And the relative viability (HCC-827; first compound 0.04 µM)?
**A.** 0.459

**Q.** And the relative viability (HCC-827; first compound 0.1265 µM)?
**A.** 0.475

**Q.** And the relative viability (HCC-827; first compound 0.4 µM)?
**A.** 0.404

**Q.** And the relative viability (HCC-827; first compound 1.265 µM)?
**A.** 0.328

**Q.** And the relative viability (NCI-H2342; first compound 0.04 µM)?
**A.** 0.588

**Q.** And the relative viability (NCI-H2342; first compound 0.1265 µM)?
**A.** 0.422

**Q.** And the relative viability (NCI-H2342; first compound 0.4 µM)?
**A.** 0.445

**Q.** What about the relative viability (NCI-H2342; first compound 1.265 µM) of the same compound?
**A.** 0.521

**Q.** What about the relative viability (SW 1573; first compound 0.04 µM) of the same compound?
**A.** 0.183

**Q.** And the relative viability (SW 1573; first compound 0.1265 µM)?
**A.** 0.194

**Q.** What about the relative viability (SW 1573; first compound 0.4 µM) of the same compound?
**A.** 0.211

**Q.** What about the relative viability (SW 1573; first compound 1.265 µM) of the same compound?
**A.** 0.148

**Q.** What about the relative viability (EPLC-272H; first compound 0.04 µM) of the same compound?
**A.** 0.295

**Q.** What about the relative viability (EPLC-272H; first compound 0.1265 µM) of the same compound?
**A.** 0.313

**Q.** And the relative viability (EPLC-272H; first compound 0.4 µM)?
**A.** 0.274

**Q.** What about the relative viability (EPLC-272H; first compound 1.265 µM) of the same compound?
**A.** 0.0995

**Q.** And the relative viability (LCLC-97TM1; first compound 0.04 µM)?
**A.** 0.338

**Q.** What about the relative viability (LCLC-97TM1; first compound 0.1265 µM) of the same compound?
**A.** 0.315

**Q.** What about the relative viability (LCLC-97TM1; first compound 0.4 µM) of the same compound?
**A.** 0.243

**Q.** And the relative viability (LCLC-97TM1; first compound 1.265 µM)?
**A.** 0.188

**Q.** What about the relative viability (201T; first compound 0.04 µM) of the same compound?
**A.** 0.943

**Q.** And the relative viability (201T; first compound 0.1265 µM)?
**A.** 0.973

**Q.** And the relative viability (201T; first compound 0.4 µM)?
**A.** 0.893

**Q.** What about the relative viability (201T; first compound 1.265 µM) of the same compound?
**A.** 0.771
